In US20240300935A1, “Nitrogen Oxide Donors of Beraprost Derivative and the Pharmaceutical Compositions with the Use Thereof” (GUANGZHOU KEMROCMED CO., LTD., priority 2021, published 2024):

Columns and labels:
[1] = In vitro NO release test (Griess method); conditions: 200 μM test compound solution mixed with 200 μM L-cysteine solution, 37° C.
Procedure: NO was transiently oxidized in aqueous solution using released NO by Griess' method, NO^2− And Griess reagent form a complex, which has strong UV uptake at 540 nm to determine the amount of NO released by the compound. • 1) Preparation of solution: blank solution: 10 mL DMSO and 190 m L PBS mixed; G riess Reagent: sulfonamide (4.0 g), N-(1-naphthalyl) ethylenediamine dihydrochloride (0.2 g) and 10 mL 85% H3PO4 dissolved in 90 mL of distilled water, Blow until clear solution; L-cysteine solution: after accurate weighing of L-cysteine, Add a certain amount of PBS, Prepare a weighed 200 μM solution; Test compound solution: the exact weighing of the test compound, Dissolved in D MSO and diluted to a concentration of 1 mM, Then, when diluted in PBS, To a concentration of 200 μM.
2) Formulation of standard curve equation: prepare sodium nitrite solution concentration: 0 ,0 , 1, 3, 6, 12.5, 25, 50, 100 μmol/L, 150 μL of each concentration, add 50 μL of Griess reagent mix, incubated in 37° C. constant temperature shaker for 30 min, the plate reader measured each tube absorbance at 540 nm, after subtracting the blank solution reading, the standard curve equation . . . 78.56.13.25 • 3) Test compound test: mix 2 mL of the test compound solution and L-cysteine solution, incubate in 37° C. constant temperature shakers for 120 min, take 150 μL of each mixture, add 50 μL of Griess reagent, then incubate in 37° C. constant temperature shaker for 30 min, the microplate measured each tube absorbance at 540 nm, then subtract the blank solution reading and substitute the value into the standard curve equation to obtain NO release.

[2] = tested on: platelet aggregation induced by ADP; assay: Antiplatelet aggregation effect, ADP-induced, turbidimetry in platelet-rich plasma; assay type: cell-based; conditions: Homo sapiens, 2 min; platelet rich plasma of healthy subjects; 25 μL of 50 nM compound solution in 225 μL plasma, 37° C. 2 min; ADP final 2 μM; read-out: The rate of platelet aggregation inhibition
Procedure: • 1) Experimental material: ADP, epinephrine, collagen (bilBio) • 2) Experimental method: blood samples provided by healthy subjects were mixed blood with 3.8% citric acid solution and centrifuged at 160 r/min to obtain platelet-rich plasma. To calibrate the data, the obtained platelet-rich plasma was further centrifuged at 2000 r/min to obtain platelet-poor plasma, stored in a −20° C. refrigerator. Testing was performed using Born I's turbiometry. 225 μL of platelet rich plasma was added to the reaction cup, the embodiment compound was configured as 50 nM solution (25 m M Tris-acetate and 120 m M N a Cl), 25 μL of embodiment compound solution was added and after incubation at 37° C. for 2 min, 5 μL of ADP (final concentration 2 μM) was added for platelet aggregation induction. To assess the degree of platelet aggregation, the maximum absorbance value took the data after ADP, thus calculating the inhibition rate of ADP-induced platelet aggregation by each embodiment compound. According to the data in Table 6 below, the compounds of the present application embodiment all have a good effect of inhibiting the platelet aggregation induced by ADP.

## CC#CCC(C)[C@@H](O)/C=C/[C@H]1[C@@H]2c3cccc(CCCC(=O)OCOC(=O)O[N+](=O)[O-])c3O[C@@H]2C[C@@H]1O (stereo partly shown) [Compound 9]
[1]
  120 min NO^2−: 18.2 µM
[2]
  inhibition at 0.005 µM: 52%

## CC#CCC(C)[C@@H](O)/C=C/[C@H]1[C@@H]2c3cccc(CCCC(=O)OCCOC(=O)CCO[N+](=O)[O-])c3O[C@@H]2C[C@@H]1O (stereo partly shown) [Compound 20]
[1]
  120 min NO^2−: 10.0 µM
[2]
  inhibition at 0.005 µM: 45%

## CC#CCC(C)[C@@H](O)/C=C/[C@H]1[C@@H]2c3cccc(CCCC(=O)OCCCCOC(=O)c4cccc(CO[N+](=O)[O-])c4)c3O[C@@H]2C[C@@H]1O (stereo partly shown) [Compound 27]
[1]
  120 min NO^2−: 11.9 µM
[2]
  inhibition at 0.005 µM: 35%

## CC#CCC(C)[C@@H](O)/C=C/[C@H]1[C@@H]2c3cccc(CCCC(=O)OCCO[N+](=O)[O-])c3O[C@@H]2C[C@@H]1O (stereo partly shown) [Compound 1]
[1]
  120 min NO^2−: 15.5 µM
[2]
  inhibition at 0.005 µM: 78%

## CC#CCC(C)[C@@H](O)/C=C/[C@H]1[C@@H]2c3cccc(CCCC(=O)OCOC(=O)CCCCO[N+](=O)[O-])c3O[C@@H]2C[C@@H]1O (stereo partly shown) [Compound 16]
[1]
  120 min NO^2−: 12.1 µM
[2]
  inhibition at 0.005 µM: 81%

## CC#CCC(C)[C@@H](O)/C=C/[C@H]1[C@@H]2c3cccc(CCCC(=O)OCCCOCC(CO[N+](=O)[O-])O[N+](=O)[O-])c3O[C@@H]2C[C@@H]1O (stereo partly shown) [Compound 31]
[1]
  120 min NO^2−: 16.7 µM
[2]
  inhibition at 0.005 µM: 67%

## CC#CCC(C)[C@@H](O)/C=C/[C@H]1[C@@H]2c3cccc(CCCC(=O)OCC(CO[N+](=O)[O-])CO[N+](=O)[O-])c3O[C@@H]2C[C@@H]1O (stereo partly shown) [Compound 28]
[1]
  120 min NO^2−: 14.8 µM
[2]
  inhibition at 0.005 µM: 47%

## CC#CCC(C)[C@@H](O)/C=C/[C@H]1[C@@H]2c3cccc(CCCC(=O)OCCC(CO[N+](=O)[O-])CO[N+](=O)[O-])c3O[C@@H]2C[C@@H]1O (stereo partly shown) [Compound 29]
[1]
  120 min NO^2−: 16.2 µM
[2]
  inhibition at 0.005 µM: 56%

## CC#CCC(C)[C@@H](O)/C=C/[C@H]1[C@@H]2c3cccc(CCCC(=O)OCOC(=O)CCCO[N+](=O)[O-])c3O[C@@H]2C[C@@H]1O (stereo partly shown) [Compound 12]
[1]
  120 min NO^2−: 8.5 µM
[2]
  inhibition at 0.005 µM: 42%

## CC#CCC(C)[C@@H](O)/C=C/[C@H]1[C@@H]2c3cccc(CCCC(=O)OCOCC(CO[N+](=O)[O-])O[N+](=O)[O-])c3O[C@@H]2C[C@@H]1O (stereo partly shown) [Compound 30]
[1]
  120 min NO^2−: 17.8 µM
[2]
  inhibition at 0.005 µM: 52%

## CC#CCC(C)[C@@H](O)/C=C/[C@H]1[C@@H]2c3cccc(CCCC(=O)OCOCCCO[N+](=O)[O-])c3O[C@@H]2C[C@@H]1O (stereo partly shown) [Compound 7]
[1]
  120 min NO^2−: 17.7 µM
[2]
  inhibition at 0.005 µM: 44%

## CC#CCC(C)[C@@H](O)/C=C/[C@H]1[C@@H]2c3cccc(CCCC(=O)OCCC4CCC(CO[N+](=O)[O-])CC4)c3O[C@@H]2C[C@@H]1O (stereo partly shown) [Compound 14]
[1]
  120 min NO^2−: 9.6 µM
[2]
  inhibition at 0.005 µM: 48%

## CC#CCC(C)[C@@H](O)/C=C/[C@H]1[C@@H]2c3cccc(CCCC(=O)OCCCOC(=O)CCCO[N+](=O)[O-])c3O[C@@H]2C[C@@H]1O (stereo partly shown) [Compound 22]
[1]
  120 min NO^2−: 13.7 µM
[2]
  inhibition at 0.005 µM: 52%

## CC#CCC(C)[C@@H](O)/C=C/[C@H]1[C@@H]2c3cccc(CCCC(=O)OCCCCCCO[N+](=O)[O-])c3O[C@@H]2C[C@@H]1O (stereo partly shown) [Compound 5]
[1]
  120 min NO^2−: 11.8 µM
[2]
  inhibition at 0.005 µM: 64%

## CC#CCC(C)[C@@H](O)/C=C/[C@H]1[C@@H]2c3cccc(CCCC(=O)OCOC(=O)CCO[N+](=O)[O-])c3O[C@@H]2C[C@@H]1O (stereo partly shown) [Compound 10]
[1]
  120 min NO^2−: 11.3 µM
[2]
  inhibition at 0.005 µM: 54%

## CC#CCC(C)[C@@H](O)/C=C/[C@H]1[C@@H]2c3cccc(CCCC(=O)OCCOC(=O)C(C)CO[N+](=O)[O-])c3O[C@@H]2C[C@@H]1O (stereo partly shown) [Compound 21]
[1]
  120 min NO^2−: 11.1 µM
[2]
  inhibition at 0.005 µM: 81%

## CC#CCC(C)[C@@H](O)/C=C/[C@H]1[C@@H]2c3cccc(CCCC(=O)OCCCc4ccc(CO[N+](=O)[O-])cc4)c3O[C@@H]2C[C@@H]1O (stereo partly shown) [Compound 11]
[1]
  120 min NO^2−: 10.1 µM
[2]
  inhibition at 0.005 µM: 67%

## CC#CCC(C)[C@@H](O)/C=C/[C@H]1[C@@H]2c3cccc(CCCC(=O)OCCCCOC(=O)CCO[N+](=O)[O-])c3O[C@@H]2C[C@@H]1O (stereo partly shown) [Compound 19]
[1]
  120 min NO^2−: 11.3 µM
[2]
  inhibition at 0.005 µM: 69%

## CC#CCC(C)[C@@H](O)/C=C/[C@H]1[C@@H]2c3cccc(CCCC(=O)OCCOC(=O)CO[N+](=O)[O-])c3O[C@@H]2C[C@@H]1O (stereo partly shown) [Compound 17]
[1]
  120 min NO^2−: 7.6 µM
[2]
  inhibition at 0.005 µM: 59%

## CC#CCC(C)[C@@H](O)/C=C/[C@H]1[C@@H]2c3cccc(CCCC(=O)OCOc4c(S(=O)(=O)c5ccccc5)no[n+]4[O-])c3O[C@@H]2C[C@@H]1O (stereo partly shown) [Compound 32]
[1]
  120 min NO^2−: 20.4 µM
[2]
  inhibition at 0.005 µM: 55%

## CC#CCC(C)[C@@H](O)/C=C/[C@H]1[C@@H]2c3cccc(CCCC(=O)OCCCCO[N+](=O)[O-])c3O[C@@H]2C[C@@H]1O (stereo partly shown) [Compound 3]
[1]
  120 min NO^2−: 16.6 µM
[2]
  inhibition at 0.005 µM: 57%

## CC#CCC(C)[C@@H](O)/C=C/[C@H]1[C@@H]2c3cccc(CCCC(=O)OCCCCOC(=O)CO[N+](=O)[O-])c3O[C@@H]2C[C@@H]1O (stereo partly shown) [Compound 23]
[1]
  120 min NO^2−: 15.5 µM
[2]
  inhibition at 0.005 µM: 56%

## CC#CCC(C)[C@@H](O)/C=C/[C@H]1[C@@H]2c3cccc(CCCC(=O)OCCOC(=O)c4cccc(CO[N+](=O)[O-])c4)c3O[C@@H]2C[C@@H]1O (stereo partly shown) [Compound 25]
[1]
  120 min NO^2−: 10.7 µM
[2]
  inhibition at 0.005 µM: 35%

## CC#CCC(C)[C@@H](O)/C=C/[C@H]1[C@@H]2c3cccc(CCCC(=O)OCCOc4no[n+]([O-])c4S(=O)(=O)c4ccccc4)c3O[C@@H]2C[C@@H]1O (stereo partly shown) [Compound 33]
[1]
  120 min NO^2−: 14.2 µM
[2]
  inhibition at 0.005 µM: 82%

## CC#CCC(C)[C@@H](O)/C=C/[C@H]1[C@@H]2c3cccc(CCCC(=O)OCCOCCO[N+](=O)[O-])c3O[C@@H]2C[C@@H]1O (stereo partly shown) [Compound 8]
[1]
  120 min NO^2−: 14.8 µM
[2]
  inhibition at 0.005 µM: 61%

## CC#CCC(C)[C@@H](O)/C=C/[C@H]1[C@@H]2c3cccc(CCCC(=O)OCOC(=O)Cc4ccc(CO[N+](=O)[O-])cc4)c3O[C@@H]2C[C@@H]1O (stereo partly shown) [Compound 24]
[1]
  120 min NO^2−: 15.8 µM
[2]
  inhibition at 0.005 µM: 47%

## CC#CCC(C)[C@@H](O)/C=C/[C@H]1[C@@H]2c3cccc(CCCC(=O)OCCCCc4ccc(CO[N+](=O)[O-])cc4)c3O[C@@H]2C[C@@H]1O (stereo partly shown) [Compound 13]
[1]
  120 min NO^2−: 10.1 µM
[2]
  inhibition at 0.005 µM: 61%

## CC#CCC(C)[C@@H](O)/C=C/[C@H]1[C@@H]2c3cccc(CCCC(=O)OCCCOC(=O)c4cccc(CO[N+](=O)[O-])c4)c3O[C@@H]2C[C@@H]1O (stereo partly shown) [Compound 26]
[1]
  120 min NO^2−: 12.6 µM
[2]
  inhibition at 0.005 µM: 22%

## CC#CCC(C)[C@@H](O)/C=C/[C@H]1[C@@H]2c3cccc(CCCC(=O)OCCCCCO[N+](=O)[O-])c3O[C@@H]2C[C@@H]1O (stereo partly shown) [Compound 4]
[1]
  120 min NO^2−: 14.1 µM
[2]
  inhibition at 0.005 µM: 43%

## CC#CCC(C)[C@@H](O)/C=C/[C@H]1[C@@H]2c3cccc(CCCC(=O)OCOCCO[N+](=O)[O-])c3O[C@@H]2C[C@@H]1O (stereo partly shown) [Compound 6]
[1]
  120 min NO^2−: 17.8 µM
[2]
  inhibition at 0.005 µM: 39%

## CC#CCC(C)[C@@H](O)/C=C/[C@H]1[C@@H]2c3cccc(CCCC(=O)OCCCO[N+](=O)[O-])c3O[C@@H]2C[C@@H]1O (stereo partly shown) [Compound 2]
[1]
  120 min NO^2−: 14.3 µM
[2]
  inhibition at 0.005 µM: 66%

## CC#CCC(C)[C@@H](O)/C=C/[C@H]1[C@@H]2c3cccc(CCCC(=O)OCCCOC(=O)CCO[N+](=O)[O-])c3O[C@@H]2C[C@@H]1O (stereo partly shown) [Compound 18]
[1]
  120 min NO^2−: 8.0 µM
[2]
  inhibition at 0.005 µM: 66%
